Columns and labels:
Type in all cases: cell-based, human
[1] = tested on: peptide-responsive T cells from post-transplant blood; assay: Flow cytometry immunophenotyping of peptide-responsive T cells (IFNγ, TNFα, CD107a) after 12-day peptide culture and restimulation
Text: (§1) FIG. 3: Characterisation of GvL T cell responses. a) IFNγ ELISpot results following stimulation of post-transplant PB with GvL peptide+/−antibodies blocking HLA pan-class I (W6/32), pan-class II (Tü39), HLA-DR (L243), -DQ (Tü169) and -DP (B7/21). Negative control without peptide (DMSO). b) Flow cytometry with intracellular cytokine staining showing % T cells positive for IFNγ, TNFα, CD107a after treatment with peptide vs no treatment. […] The generic workflow established in Example 1 was used to identify the antigenic basis of GvL in further patients. In brief, mismatched peptides identified by in silico prediction and mass spectrometry for each patient were screened for their ability to activate donor-derived T cells taken from the patient post-allo-SCT, using IFNγ ELISpot assays. HLA restriction was investigated using IFNγ ELISpots with HLA-blocking antibodies. The nature and frequency of peptide-responsive T cells (i.e. cells producing cytokines (IFNγ, TNFα) and expression of the degranulation marker (CD107a) following peptide contact) were assessed by culturing post-transplant blood with peptide for 12 days and then stimulating with the peptide. Responses were assessed by flow cytometry.

[2] = tested on: activated (IFNγ+) CD4+ or CD8+ T cells from post-transplant PBMCs; assay: IFNγ catch FACS sort and single cell RNA sequencing with V(D)J enrichment to identify antigen-specific TCR clones; settings: for Size of expanded T cell clone in activated (IFNγ+) repertoire after peptide stimulation and IFNγ catch: figure legends FIG. 8-22, single cell V(D)J sequencing; for Clone size (percent repertoire): CD4 T cells
Text: The following protocol was used to determine the sequence of TCRs recognising peptide 1 (SEQ ID NO: 1) or peptide 2 (SEQ ID NO: 2): • 1. Culture post-transplant blood with peptide (identified from IFNγ ELISpot screen) to enrich for antigen-specific T cells. • 2. After peptide stimulation, FACS sort activated (IFNγ+) T cells and control (IFNγ−) T cells. • 3. Single cell RNA sequencing with V (D) J enrichment. […]
The following protocol was used to determine the sequence of TCRs recognising the alloreactive peptide antigens set out in Table 3 above: • 1. Thaw post-transplant PBMCs from the patient from whom the peptide antigen was detected. Culture the cells with peptide, IL-2 and IL-7 for 12 days. • 2. Rest cells overnight. • 3. Stimulate cells with peptide for 6 hours. • 4. Stain cells for FACS using antibodies and IFNγ catch reagent. • 5. FACS sorting of activated (IFNγ+) CD4+ or CD8+ T cells and negative control (IFNγ−) populations. • 6. 10× Chromium single cell RNA sequencing with V (D) J enrichment.
T cells recognizing 18 of the 24 peptides set out in Table 3 (including PADI4) were detectable by FACS. Of these, 17 were detectable using IFNγ catch. Data are shown in Tables 4 and 5 below, and in FIGS. 8 to 23. In Table 5, clones were included that were (a) greater in size than the largest clone in the control repertoire, or (b)>10% of the repertoire, even if not larger than the largest clone in the control repertoire.

[3] = tested on: donor-derived T cells taken from the patient post-allo-SCT; assay: IFNγ ELISpot with HLA-blocking antibodies (HLA restriction); settings: for Restricting HLA allele: candidate alleles separated by /
Text: as §1

[4] = Table 3, post-transplant blood cultured with peptide 12 days, then restimulated
[5] = Table 3, IFNγ ELISpots with HLA-blocking antibodies

Sequence | CD4/CD8 responses [1, 4] | CD4/CD8 responses ([1]; Table 4) | Freq. of response (% IFNγ+ cells amongst CD4+ or CD8+ by FACS) ([1]; Table 4) | Size of expanded T cell clone in activated (IFNγ+) repertoire after peptide stimulation and IFNγ catch [2] | HLA restriction [3, 5] | Restricting HLA allele ([3]; Table 3) | HLA restriction ([3]; Table 4) | Frequency of response (% IFN* cells amongst CD4+ or CD8+ by FACS) [1, 4] | Clone size (percent repertoire) ([2]; expanded TCR clone 1 following peptide stimulation) | Clone size (percent repertoire) ([2]; expanded TCR clone 2 following peptide stimulation)
VRIALALKGIDYETVPINLI (listed as Homo sapiens) [OX885-560] | CD4 | CD4 | 0.83% | 96.5% |  |  |  |  |  | 
WRVRIALALKGIDYETVPIN (listed as Homo sapiens) [OX885-559] | CD4 | CD4 | 0.83% | 96.5% |  |  |  |  |  | 
AGTGLASIIAATMARTVYCT (listed as Homo sapiens) [OX747-191] | Likely CD4 | Likely CD4 | Not detected |  | HLA-DR | DRB1*04:04:01/DRB1*13:02:01/DRB3*03:01/DRB4*01:03 | HLA-DR | Not detected |  | 
MNYVSKRLPFAARLNTPMGP (listed as Homo sapiens) [OX1098-614] | Indeterminate | Likely CD4 | Not detected |  | Indeterminate |  | HLA-DP | Not detected |  | 
LGLIFALTLNRHKYPLNLYL (listed as Homo sapiens) [OX747-158] | CD4 | CD4 | 0.45% |  |  |  |  |  |  | 
RFRRVSCFLRLGRSTLLELE (listed as Homo sapiens) [OX802-322] | CD4 | CD4 | 3.23% |  |  |  |  |  |  | 
TDRALQNKSISAFLVPMPTP (listed as Homo sapiens) [OX289-205] | CD4 | CD4 | 0.89% |  |  |  |  |  |  | 
KALLKRLLKGMQKKRPSDVQ (listed as Homo sapiens) [OX993-414] | Likely CD4 | CD4 | 0.4% |  | HLA-DR | DRB1*01:01/DRB1*11:01/DRB3*02:02/28/29N | HLA-DR |  |  | 
NPLSPYLNVDPRYLVQDT (listed as Homo sapiens) [OX289-180] | CD4 | CD4 | 0.98% |  | Likely HLA-DR | DRB1*03:01/DRB1*07:01:01/DRB3*02:02/05/11/13/14/17-23/DRB4*01:01-05/07 | HLA-DR |  |  | 
GYSPSLHILAIGTRSGAIKL (listed as Homo sapiens) [OX289-052] | CD4 | CD4 | 1.27% |  | Likely HLA-DR | DRB1*03:01/DRB1*07:01:01/DRB3*02:02/05/11/13/14/17-23/DRB4*01:01-05/07 | HLA-DR |  | 27.3 percent repertoire | 10.7 percent repertoire
LHRDKALLKRLLKGMQKKRP (listed as Homo sapiens) [OX993-413] | Likely CD4 | CD4 | 0.4% |  | HLA-DR | DRB1*01:01/DRB1*11:01/DRB3*02:02/28/29N | HLA-DR |  |  | 
VPREYVRALNATKLERVFAK (listed as Homo sapiens) [OX628-305] | Indeterminate |  | Not detected |  | Indeterminate |  |  | Not detected |  | 
TQRSVLLCKVVGARGVGKSA (listed as Homo sapiens) [OX813-101] | Indeterminate |  | Not detected |  | Indeterminate |  |  | Not detected |  | 

From US20250003951A1, “METHOD AND COMPOSITION” (Oxford University Innovation Limited, priority 2021, published 2025)
